These are literature values, as cited in US10662178B2, “Crystalline form of Olaparib” (Apotex Inc., priority 2018, dated 2020).

For the series the following is noted: CHMP Assessment Report EMEA/H/C/003726/0000.

`O=C(c1cc(Cc2n[nH]c(=O)c3ccccc23)ccc1F)N1CCN(C(=O)C2CC2)CC1` [Olaparib, 4-[(3-{[4-(cyclopropylcarbonyl)-piperazin-1-yl]carbonyl}-4-fluorophenyl)methyl]phthalazin-1(2H)-one]: the “Biopharmaceutics Classification System (BCS) class” value is “Class IV”. Besides, the solubility entry (drug substance in the approved drug product LYNPARZA) is “low solubility”.
